Results: patent US20170081357A1, “[…] ACTIVE 17-NITROGEN SUBSTITUTED ESTRATREINTHIAZOLE DERIVATIVES AS INHIBITORS OF 17.BETA-HYDROXYSTEROID DEHYDROGENASE” (FORENDO PHARMA LTD, priority 2013, published 2017)

Tests used:
[1] = biological target: T1, recombinant human 17β-HSD1 (Homo sapiens, UniProt P14061); assay: Inhibition of recombinant human 17β-HSD1 (conversion of 3H-estrone to estradiol, HPLC); type: biochemical; conditions: inhibitor 1 μM; 30 nM estrone, 1 mM NADPH, 30 min at RT; read-out: 17β-HDS1 Inhibition % at 1 μM
T1 construct: made in house; host or cells: Sd9 (Sf9) insect cells, baculovirus (Bac to Bac Expression System); microsomal fraction
T1 sequence (P14061 1-328): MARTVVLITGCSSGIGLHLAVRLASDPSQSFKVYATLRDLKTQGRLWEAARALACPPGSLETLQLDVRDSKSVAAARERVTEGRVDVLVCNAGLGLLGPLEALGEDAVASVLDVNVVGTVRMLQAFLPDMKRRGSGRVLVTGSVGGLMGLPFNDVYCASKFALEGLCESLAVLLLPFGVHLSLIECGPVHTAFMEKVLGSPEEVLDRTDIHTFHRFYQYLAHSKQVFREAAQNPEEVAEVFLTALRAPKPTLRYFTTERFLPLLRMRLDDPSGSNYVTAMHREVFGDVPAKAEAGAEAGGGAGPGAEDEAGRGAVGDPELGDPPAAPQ
Description: 17β-HSD1 production and isolation: Recombinant baculovirus was generated by the “Bac to Bac Expression System” (Invitrogen). Recombinant bacmid was transfected to Sd9 insect cells using “Cellfectin Reagent” (Invitrogen). 60 h later cells were harvested; the microsomal fraction was isolated as described by Puranen, T. J., Poutanen, M. H., Peltoketo, H. E., Vihko, P. T. and Vihko, R. K. (1994) Site-directed mutagenesis of the putative active site of human 17 β-hydroxysteroid dehydrogenase type 1. Biochem. J. 304: 289-293. Aliquots were stored frozen until determination of enzymatic activity.
Assay—Inhibition of recombinant human 17β-HSD1: Recombinant protein (1 μg/ml) was incubated in 20 mM KH2PO4 pH 7.4 with 30 nM estrone (including 800 000 cpm/ml of ^3H-estrone) and 1 mM NADPH for 30 min at RT, in the presence of the potential inhibitor at concentrations 1 μM or 0.1 μM. Inhibitor stock solutions were prepared in DMSO. Final concentration of DMSO was adjusted to 1% in all samples. The enzyme reaction was stopped by addition of 10% trichloroacetic acid (final concentration). Samples were centrifuged in a microtiter plate at 4000 rpm for 10 min. Supernatants were applied to reverse phase HPLC on a Waters Symmetry C18 column, equipped with a Waters Sentry Guard column. Isocratic HPLC runs were performed at RT at a flow rate of 1 ml/min in acetonitrile:water 48:52 as running solvent. Radioactivity was monitored in the eluate by a Packard Flow Scintillation Analyzer. Total radioactivity for estrone and estradiol were determined in each sample and percent conversion of estrone to estradiol was calculated according to the following formula:
(§1) Percent inhibition was calculated flowingly: % inhibition=100−% conversion

[2] = biological target: T2, recombinant human 17β-HSD2 (Homo sapiens, UniProt P37059); assay: Inhibition of recombinant human 17β-HSD2 (conversion of 3H-estradiol to estrone, HPLC); type: biochemical; conditions: inhibitor 1 μM; 50 nM estradiol, 1 mM NADH, 30 min at RT
T2 construct: made in house; host or cells: Sd9 (Sf9) insect cells, baculovirus (Bac to Bac Expression System); fractionated cell extract
T2 sequence (P37059 1-387): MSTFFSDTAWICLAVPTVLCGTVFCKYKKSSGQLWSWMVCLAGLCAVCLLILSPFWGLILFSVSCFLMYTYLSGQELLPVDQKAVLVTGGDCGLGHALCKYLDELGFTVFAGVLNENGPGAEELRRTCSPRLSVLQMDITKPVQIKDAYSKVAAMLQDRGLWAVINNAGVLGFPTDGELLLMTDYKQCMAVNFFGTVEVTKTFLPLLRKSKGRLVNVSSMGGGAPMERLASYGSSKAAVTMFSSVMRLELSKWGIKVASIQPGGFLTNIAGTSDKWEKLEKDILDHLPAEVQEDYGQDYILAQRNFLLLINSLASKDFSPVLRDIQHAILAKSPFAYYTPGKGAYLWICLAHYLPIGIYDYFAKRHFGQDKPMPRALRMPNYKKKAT
Description: 17β-HSD2 production and isolation: Similarly to 17β-HSD1 the Recombinant baculovirus was generated by the “Bac to Bac Expression System” (Invitrogen). Recombinant bacmid was transfected to Sd9 insect cells using “Cellfectin Reagent” (Invitrogen). 60 h later cells were harvested and supernatant were fractionated by the following protocol: • cells were dissolved into 40 ml of A-buffer (40 mM TRIS, pH8.0, 20% glycerol, 20 μM NAD, 0.4 mM PMSF, 150 mM NaCl, 0.5% dodecyl-β-maltoside+protease inhibitor cocktail) • cells were sonicated • lysate was incubated on ice for 15 min • lysate was centrifuged 5000 rpm 15 min, +4° C. • centrifugation of the supernatant 180 000 g 30 min, +4° C. • pellet was dissolved into 8 ml of A-buffer • not resuspended material was removed by centrifugation 5000 rpm 15 min, +4° C. • the clear supernatant was divided into 100 μl aliquots and were stored frozen until determination of enzymatic activity.
The amount of 17β-HSD2 was analysed by immunoblotting and total protein concentration of each extract batch was determined.
Assay—Inhibition of recombinant human 17β-HSD2: Recombinant protein (4 μg/ml) was incubated in 20 mM KH2PO4 pH 8.5 with 50 nM estradiol (including 800 000 cpm/ml of ^3H-estradiol) and 1 mM NADH for 30 min at RT, in the presence of the potential inhibitor at concentrations 1 μM or 0.1 μM. Inhibitor stock solutions were prepared in DMSO. Final concentration of DMSO was adjusted to 1% in all samples. The enzyme reaction was stopped by addition of 10% trichloroacetic acid (final concentration). Samples were centrifuged in a microtiter plate at 4000 rpm for 10 min. Supernatants were applied to reverse phase HPLC on a Waters Symmetry C18 column, equipped with a Waters Sentry Guard column. Isocratic HPLC runs were performed at RT at a flow rate of 1 ml/min in acetonitrile:water 48:52 as running solvent. Radioactivity was monitored in the eluate by a Packard Flow Scintillation Analyzer. Total radioactivity for estrone and estradiol were determined in each sample and percent conversion of estradiol to estrone was calculated according to the following formula:
as §1

[3] = Metabolic stability assay, human liver microsome and homogenate incubations; type: in vitro ADME; conditions: human liver homogenate or microsomes, LC/PDA/TOF-MS
Description: The in vitro metabolic stability of the compounds of the invention was determined for exemplified compounds using human liver microsome and homogenate incubations. The incubation time points used with or without appropriate cofactors were 0 min and 60 min. Samples were collected at both time points and substrates were detected using LC/PDA/TOF-MS. In vitro metabolic stability (% remaining after 60 min in human liver homogenate or microsomes) of the compounds were calculated and the results are summarized in Table 3.

Compound	inhibition at 1 µM [1]	inhibition at 1 µM [2]	In vitro metabolic stability, % remaining after 60 min [3]
COc1ccc2c(c1)CCC1C2CC[C@]2(C)c3n[nH]cc3[C@@H](CCC(=O)Nc3ncc(C)s3)C12 (stereo partly drawn) [Compound 50, 3-((6aS,10S)-2-Methoxy-6a-methyl-4b,5,6,6a,8,10,10a,10b,11,12-decehydro-7,8-diaza-pentaleno[2,1-1]phenanthren-10-yl}-N-(5-methylthiazol-2-yl)propanamide]	78%	0%	88%
Cc1cnc(NC(=O)CC[C@@H]2c3c[nH]nc3[C@@]3(C)CCC4c5ccc(O)cc5CCC4C23)s1 (stereo partly drawn) [Compound 51, 3-((6aS,10S)-2-Hydroxy-6a-methyl-4b,5,6,6a,8,10,10a,10b,11,12-decehydro-7,8-diaza-pentaleno[2,1-1]phenanthren-10-yl}-N-(5-methylthiazol-2-yl)propanamide]	82%	15%	46%
Cc1cnc(NC(=O)CC[C@@H]2c3c[nH]nc3[C@@]3(C)CCC4c5cc(C(C)(C)C)c(O)cc5CCC4C23)s1 (stereo partly drawn) [Compound 53, 3-((6aS,10S)-3-tert-Butyl-2-hydroxy-6a-methyl-4b,5,6,6a,8,10,10a,10b,11,12-decehydro-7,8-diaza-pentaleno[2,1-1]phenanthren-10-yl}-N-(5-methylthiazol-2-yl)propanamide]	76%	13%	100%
Cc1cnc(NC(=O)CC[C@@H]2c3c[nH]nc3[C@@]3(C)CCC4c5cc([N+](=O)[O-])c(O)cc5CCC4C23)s1 (stereo partly drawn) [Compound 55, 3-((6aS,10S)-2-Hydroxy-6a-methyl-2-nitro-4b,5,6,6a,8,10,10a,10b,11,12-decehydro-7,8-diaza-pentaleno[2,1-1]phenanthren-10-yl}-N-(5-methylthiazol-2-yl)propanamide]	69%	7%	86%
Cc1cnc(NC(=O)CC[C@@H]2C/C(=N\O)[C@@]3(C)CCC4c5ccccc5CCC4C23)s1 (stereo partly drawn) [Compound 59, 3-{(13S,15R)-17-[(E)-hydroxyimino]-13-methyl-7,8,9,11,12,13,14,15,16,17-decahydro-6H-cyclopenta[a]phenanthren-15-yl}-N-(5-methylthiazol-2-yl)propanamide]	93%	2%	100%
Cc1cnc(NC(=O)CC[C@@H]2C/C(=N\O)[C@@]3(C)CCC4c5cc(Br)c(O)c(Br)c5CCC4C23)s1 (stereo partly drawn) [Compound 64, 3-{(13S,15R)-2,4-Dibromo-3-hydroxy-17-[(E)-hydroxyimino]-13-methyl-7,8,9,11,12,13,14,15,16,17-decahydro-6H-cyclopenta[a]phenanthren-15-yl}-N-(5-methylthiazol-2-yl)propanamide]			95%
Cc1cnc(NC(=O)CC[C@@H]2C(=C\O)/C(=N\O)[C@@]3(C)CCC4c5cc(Br)c(O)c(Br)c5CCC4C23)s1 (stereo partly drawn) [Compound 70, 3-{(13S,15S)-2,4-Dibromo-3-hydroxy-17-[(Z)-hydroxyimino]-16-[1-hydroxy-meth-(E)-ylidene]-13-methyl-7,8,9,11,12,13,14,15,16,17-decahydro-6H-cyclopenta[a]phenanthren-15-yl}-N-(5-methylthiazol-2-yl)propanamide]	94%	8%	97%
CO/N=C1\C[C@@H](CCC(=O)Nc2ncc(C)s2)C2C3CCc4cc(O)ccc4C3CC[C@]12C (stereo partly drawn) [Compound 73, 3-{(13S,15R)-3-Hydroxy-17-[(E)-methoxyimino]-13-methyl-7,8,9,11,12,13,14,15,16,17-decahydro-6H-cyclopenta[a]phenanthren-15-yl}-N-(5-methylthiazol-2-yl)propanamide]			73%
CO/N=C1\C[C@@H](CCC(=O)Nc2ncc(C)s2)C2C3CCc4cc(O)c(C(C)(C)C)cc4C3CC[C@]12C (stereo partly drawn) [Compound 76, 3-{(13S,15R)-2-tert-Butyl-3-hydroxy-17-[(E)-methoxyimino]-13-methyl-7,8,9,11,12,13,14,15,16,17-decahydro-6H-cyclopenta[a]phenanthren-15-yl}-N-(5-methylthiazol-2-yl)propanamide]			100%
CO/N=C1\C[C@@H](CCC(=O)Nc2ncc(C)s2)C2C3CCc4cc(O)c(Br)cc4C3CC[C@]12C (stereo partly drawn) [Compound 85, 3-{(13S,15R)-2-Bromo-3-hydroxy-17-[(E)-methoxyimino]-13-methyl-7,8,9,11,12,13,14,15,16,17-decahydro-6H-cyclopenta[a]phenanthren-15-yl}-N-(5-methylthiazol-2-yl)-propanamide]			34%
CO/N=C1\C[C@@H](CCC(=O)Nc2ncc(C)s2)C2C3CCc4cc(O)c(Cl)cc4C3CC[C@]12C (stereo partly drawn) [Compound 88, 3-{(13S,15R)-2-Chloro-3-hydroxy-17-[(E)-methoxyimino]-13-methyl-7,8,9,11,12,13,14,15,16,17-decahydro-6H-cyclopenta[a]phenanthren-15-yl}-N-(5-methylthiazol-2-yl)propanamide]			94%
CO/N=C1\C[C@@H](CCC(=O)Nc2ncc(C)s2)C2C3CCc4cc(O)c(F)cc4C3CC[C@]12C (stereo partly drawn) [Compound 91, 3-{(13S,15R)-2-Fluoro-3-hydroxy-17-[(E)-methoxyimino]-13-methyl-7,8,9,11,12,13,14,15,16,17-decahydro-6H-cyclopenta[a]phenanthren-15-yl}-N-(5-methylthiazol-2-yl)propanamide]	94%	5%	92%
